Type in all cases: physicochemical
Series [1] is described as follows: Static storage stability of cocrystals and amorphous form by XRPD.
Series [2] is described as follows: Moisture sorption (dynamic vapor sorption, hygroscopicity 0 to 95% RH). The settings on record: for hygroscopicity: DVS, 0 to 95% RH. As for the experimental part: Moisture Sorption Moisture sorption data was collected using a dynamic vapor sorption (DVS) analyzer. A sample size of approximately 5-10 mg was used in a quartz pan. Hygroscopicity was evaluated from 0 to 95% RH in increments of 5 or 10% RH. Data for adsorption and desorption cycles were collected. Equilibrium criteria were set at 0.002% weight change in 5 minute with a maximum equilibration time of 120 minutes.

Series [3] can be described thus: Solid stability of drug substance (chemical by UPLC; physical by XRPD, DSC, TGA). The settings on record: stored at 25° C./60% RH, 40° C./75% RH, 40° C./ambient or 60° C./ambient conditions. As for the experimental part:
Solid Stability Drug substance was stored at 25 C/60% RH, 40 C/75% RH, 40 C/ambient or 60 C/ambient conditions. Chemical stability was determined at each timepoint by dissolving the drug substance in 50% acetonitrile water for UPLC analysis. Physical stability was determined by analyzing the solid by XRPD, DSC and TGA.

The nature of series [4]: Solubility in water (excess solid dispersed at least 24 hours at room temperature, UPLC-UV). The method, then:
Water: An excess of solid was added to water to produce a suspension and dispersed for at least 24 hours at room temperature. Suspensions were filtered. Filtrate was analyzed by UPLC-UV and compared against a standard curve to determine the solution concentration of the crystal form. Solids were analyzed by XRPD to determine the crystal form.

Series [5] can be described thus: Physical form stability (dehydration of the monohydrate). The settings on record: under vacuum at ambient temperature, at temperatures greater than 25° C. or at low humidity.

Converted amounts (≈) assume the structure as drawn. Counter-ions that a name gives are not always drawn.

These results are taken from US12187700B2, “Polymorphs and cocrystals of a cardiac troponin activator” (Amgen Inc., priority 2019, dated 2025).

What is called solubility is the concentration that dissolves in the medium under given conditions. A higher solubility goes with a readily soluble substance.

Turning to `CS(=O)(=O)c1cncc(C(=O)N2[C@@H](C(=O)N[C@@H](c3cc(F)c(C(F)(F)F)cc3F)C3CC3)C[C@H]3C[C@H]32)c1` [Glycerol cocrystal], the “storage stability by XRPD” value in series [1] (40° C./75% RH storage 7 d) is on record as “Stable”. For `CS(=O)(=O)c1cncc(C(=O)N2[C@@H](C(=O)N[C@@H](c3cc(F)c(C(F)(F)F)cc3F)C3CC3)C[C@H]3C[C@H]32)c1` [Urea cocrystal], in series [1] (25° C./97% RH storage 7 d), the “storage stability by XRPD” value is given as “Stable”. As to `CS(=O)(=O)c1cncc(C(=O)N2[C@@H](C(=O)N[C@@H](c3cc(F)c(C(F)(F)F)cc3F)C3CC3)C[C@H]3C[C@H]32)c1` [Form I], the hygroscopicity result in series [2] is reported as “non-hygroscopic”. Also, the “time physically and chemically stable on storage” value in series [3] is reported as 14 weeks. The concentration in solution in series [4] (thermodynamic from solid) (solubility) was 13 µg/mL (≈ 23.9 µM). Regarding `CS(=O)(=O)c1cncc(C(=O)N2[C@@H](C(=O)N[C@@H](c3cc(F)c(C(F)(F)F)cc3F)C3CC3)C[C@H]3C[C@H]32)c1` [Hydrochloride Salt Form], in series [2], the hygroscopicity result is on record as “hygroscopic”. Further, in series [2] (exposure to water during moisture sorption experiments or slurry in water), the “salt stability upon exposure to water” value is “disproportionates to Free Form”. Turning to `CS(=O)(=O)c1cncc(C(=O)N2[C@@H](C(=O)N[C@@H](c3cc(F)c(C(F)(F)F)cc3F)C3CC3)C[C@H]3C[C@H]32)c1` [Amorphous Form], in series [1] (static storage at 80° C./0% RH or 40° C./75% RH), the “time to crystallization upon static storage” value is at most 1 week.

With `CS(=O)(=O)c1cncc(C(=O)N2[C@@H](C(=O)N[C@@H](c3cc(F)c(C(F)(F)F)cc3F)C3CC3)C[C@H]3C[C@H]32)c1` [Form IV], the hygroscopicity result in series [2] is listed as “non-hygroscopic”. Besides, the “time physically and chemically stable on storage” value in series [3] turned out to be 13 weeks. The molecule also registered a solubility in water in series [4] of 10 µg/mL (≈ 18.4 µM).

For the molecule `CS(=O)(=O)c1cncc(C(=O)N2[C@@H](C(=O)N[C@@H](c3cc(F)c(C(F)(F)F)cc3F)C3CC3)C[C@H]3C[C@H]32)c1` [Form III], the “stability of the monohydrate (dehydration)” value in series [5] is “dehydrates”.
